Measurements taken from publication doi:10.1101/2020.08.05.237982v3, “ThermoBRET: a ligand-engagement nanoscale thermostability assay applied to GPCRs” (biorxiv, 2023).

Target: T1, CB2 (Nluc-CB2, tsNluc-CB2) (Homo sapiens, UniProt P34972)
T1 construct: gene CNR2; N-terminal cleaved signal peptide, TwinStrep tag and Nluc or tsNluc
Type: binding
Conditions: Nluc-CB2, 20 µM ligand, DDM/CHAPSO/CHS

T1 sequence (P34972 whole entry): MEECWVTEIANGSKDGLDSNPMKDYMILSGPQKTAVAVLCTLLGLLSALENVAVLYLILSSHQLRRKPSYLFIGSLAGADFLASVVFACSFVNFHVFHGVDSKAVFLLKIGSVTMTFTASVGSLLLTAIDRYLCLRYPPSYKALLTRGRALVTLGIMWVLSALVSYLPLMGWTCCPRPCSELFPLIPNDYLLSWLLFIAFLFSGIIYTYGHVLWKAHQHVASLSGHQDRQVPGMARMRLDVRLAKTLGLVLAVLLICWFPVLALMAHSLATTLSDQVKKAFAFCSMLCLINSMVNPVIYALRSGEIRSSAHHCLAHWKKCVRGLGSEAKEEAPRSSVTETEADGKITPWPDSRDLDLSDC

SMILES	dTm
Cc1ccc(Cn2nc(C(=O)N[C@@H]3C(C)(C)[C@@H]4CC[C@@]3(C)C4)cc2-c2ccc(Cl)c(C)c2)cc1 [SR144528]	HU308 and SR144528 also produced appreciable increases in thermostability
CCCCCCC(C)(C)c1cc(OC)c([C@@H]2C=C(CO)[C@@H]3C[C@H]2C3(C)C)c(OC)c1 [HU308]	HU308 and SR144528 also produced appreciable increases in thermostability
